Reference: patent US11884675B2, “Heterocyclic compounds as triggering receptor expressed on myeloid cells 2 agonists and methods of use” (AMGEN INC., priority 2020, dated 2024)

Biological target: hTREM2 (Homo sapiens, UniProt Q9NZC2)
Test: TREM2 activity by cellular Syk phosphorylation (AlphaScreen/AlphaLISA) in TREM2/DAP12-HEK cells, used for Examples 1-305
Format: cell-based
Set-up: expressed in transfected cells
Details: HEK293 Cells
Summary of the method: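 Phospho-Syk (Tyr525/526) over total Syk quantified by AlphaScreen in lysates of cloned TREM2/DAP12-overexpressing HEK293 cells after 45 min compound treatment at room temperature, 1% final DMSO. Values expressed relative to 100 nM anti-TREM2 antibody (positive) and isotype IgG (negative) controls; curves fitted with 4-parameter logistic model.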

hTREM2, sequence (Q9NZC2 19-230): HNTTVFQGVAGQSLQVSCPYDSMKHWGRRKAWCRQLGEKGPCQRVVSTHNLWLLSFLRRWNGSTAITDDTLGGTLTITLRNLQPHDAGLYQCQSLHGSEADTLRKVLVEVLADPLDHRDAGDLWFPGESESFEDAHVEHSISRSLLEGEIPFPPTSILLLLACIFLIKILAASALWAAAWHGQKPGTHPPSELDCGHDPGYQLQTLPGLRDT
hTREM2, sequence (O43914 22-113 partner): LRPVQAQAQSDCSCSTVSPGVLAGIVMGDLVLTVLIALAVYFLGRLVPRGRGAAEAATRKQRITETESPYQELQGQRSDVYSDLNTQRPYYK

Q: Which EC50 does the source give for Cc1cc([C@H]2CN(c3nc4nc(C)cnc4c([C@H]4C[C@@H](C(F)(F)F)C4)n3)CCO2)ccn1 [Example 15, 7-methyl-2-((2S)-2-(2-methyl-4-pyridinyl)-4-morpholinyl)-4-(cis-3-(trifluoromethyl)cyclobutyl)pteridine] here?
A: The EC50 was 50 to 500 nM.

Q: What about the “hTREM2 Emax” value of the same compound?
A: Its value is “++ (Emax>100 and ≤150)”.

Q: For Cc1ccc2c(C3CCC(F)(F)CC3)nc(N3CCO[C@@H](c4cnn(C5CC5)c4)C3)nc2n1 [Example 143, 2-((2S)-2-(1-cyclopropyl-1H-pyrazol-4-yl)-4-morpholinyl)-4-(4,4-difluorocyclohexyl)-7-methylpyrido [2,3-d]pyrimidine], which EC50 is on record?
A: The EC50 was 50 to 500 nM.

Q: What about the “hTREM2 Emax” value of the same compound?
A: The value was “+++ (Emax>150 and ≤250)”.

Q: For Cc1ccc2c(C34CC(C(F)(F)F)(C3)C4)nc(N3CCO[C@@H](c4cnn(C5CC5)c4)C3)nc2n1 [Example 101, 2-((2S)-2-(1-cyclopropyl-1H-pyrazol-4-yl)-4-morpholinyl)-7-methyl-4-(3-(trifluoromethyl)bicyclo[1.1.1]pentan-1-yl)pyrido[2,3-d]pyrimidine], which EC50 is on record?
A: Its EC50 is 3000 to 100000 nM.

Q: Which EC50 does the source give for Cc1ccc(-c2nc(N3CCO[C@@H](c4cnn(C5CC5)c4)C3)nc3nc(C)c(C)nc23)c(F)c1 [Example 38, 2-((2S)-2-(1-cyclopropyl-1H-pyrazol-4-yl)-4-morpholinyl)-4-(2-fluoro-4-methylphenyl)-6,7-dimethylpteridine] here?
A: The EC50 was at most 50 nM.

Q: And the “hTREM2 Emax” value?
A: Its value is “+++ (Emax>150 and ≤250)”.

Q: Cc1ccc(-c2nc([C@@H]3CCO[C@H](c4ccnc(C)c4)C3)nc3nc(C)c(C)cc23)c(F)c1 (single isomer, unassigned) [Example 223] was tested. Which EC50 did it give?
A: The EC50 was 50 to 500 nM.

Q: And the “hTREM2 Emax” value?
A: Its value is “++++ (Emax>250)”.

Q: For Cc1nc2nc(N3CCO[C@@H](c4cnn(C)c4)C3)nc([C@H]3CC[C@@H](C(F)(F)F)CC3)c2nc1C [Example 131, 6,7-dimethyl-2-((2S)-2-(1-methyl-1H-pyrazol-4-yl)-4-morpholinyl)-4-(cis-4-(trifluoromethyl)cyclohexyl)pteridine], which EC50 is on record?
A: The EC50 was 50 to 500 nM.

Q: What about the “hTREM2 Emax” value of the same compound?
A: The value was “+++ (Emax>150 and ≤250)”.

Q: With Cc1nc2nc(N3CCO[C@@H](c4cnn(C)c4)C3)nc(N3CC(C(F)(F)F)C3)c2nc1C [Example 30, 6,7-dimethyl-2-((2S)-2-(1-methyl-1H-pyrazol-4-yl)-4-morpholinyl)-4-(3-(trifluoromethyl)-1-azetidinyl)pteridine] as the compound, how does the EC50 read?
A: The EC50 was 500 to 3000 nM.

Q: And the “hTREM2 Emax” value?
A: The value was “++ (Emax>100 and ≤150)”.

Q: For COC1CN(c2nc(N3CCO[C@@H](c4cnn(C)c4)C3)nc3nc(C)c(C)nc23)C1 [Example 28, 4-(3-methoxy-1-azetidinyl)-6,7-dimethyl-2-((2S)-2-(1-methyl-1H-pyrazol-4-yl)-4-morpholinyl)pteridine], which EC50 is on record?
A: Its EC50 is 500 to 3000 nM.

Q: What about the “hTREM2 Emax” value of the same compound?
A: The value was “+++ (Emax>150 and ≤250)”.

Q: With Cc1ccc2cc(N3CCO[C@@H](c4cnn(C)c4)C3)nc(-c3ccc(Cl)cc3F)c2c1 [Example 236, (S)-4-(1-(4-chloro-2-fluorophenyl)-7-methylisoquinolin-3-yl)-2-(1-methyl-1H-pyrazol-4-yl)morpholine] as the compound, how does the EC50 read?
A: The EC50 was 3000 to 100000 nM.

Q: And the “hTREM2 Emax” value?
A: Its value is “+++ (Emax>150 and ≤250)”.

Q: How did the EC50 turn out when Cc1cc2c(OC[C@@H]3C[C@H]3C(F)(F)F)nc(N3CCO[C@@H](c4cnn(C)c4)C3)nc2nc1C [Example 110, 6,7-dimethyl-2-((2S)-2-(1-methyl-1H-pyrazol-4-yl)-4-morpholinyl)-4-(((1R,2R)-2-(trifluoromethyl)cyclopropyl)methoxy)pyrido[2,3-d]pyrimidine] was run?
A: The EC50 was 500 to 3000 nM.

Q: And the “hTREM2 Emax” value?
A: The value was “+ (Emax>45 and ≤100)”.

Q: What does the source list for Cc1cnc2c(-c3ccc(Cl)cc3F)nc(N3CCO[C@H](c4cnc(C)nc4)C3)nc2n1 [Example 261, (R)-4-(4-(4-chloro-2-fluorophenyl)-7-methylpteridin-2-yl)-2-(2-methylpyrimidin-5-yl)morpholine]?
A: EC50: 500 to 3000 nM; hTREM2 Emax: +++ (Emax>150 and ≤250)

Q: Cc1nc2nc(N3CCO[C@@H](c4cnn(C)c4)C3)nc(N3C[C@@H]4[C@H](C3)C4(F)F)c2nc1C [Example 27, 4-((1R,5S)-6,6-difluoro-3-azabicyclo[3.1.0]hexan-3-yl)-6,7-dimethyl-2-((2S)-2-(1-methyl-1H-pyrazol-4-yl)-4-morpholinyl)pteridine] was tested. Which EC50 did it give?
A: Its EC50 is 500 to 3000 nM.

Q: What about the “hTREM2 Emax” value of the same compound?
A: Its value is “++ (Emax>100 and ≤150)”.

Q: For Cc1cnc2c(-c3ccc(Cl)cc3F)nc(N3CCO[C@@H](c4cnn(C)c4)C3)nc2n1 [Example 1, 4-(4-chloro-2-fluorophenyl)-7-methyl-2-((2S)-2-(1-methyl-1H-pyrazol-4-yl)-4-morpholinyl) pteridine], which EC50 is on record?
A: The EC50 was at most 50 nM.

Q: And the “hTREM2 Emax” value?
A: The value was “++++ (Emax>250)”.

Q: Cc1nc2nc(N3CCO[C@@H](c4cnn(C)c4)C3)nc([C@H]3CC[C@@H](C)CC3)c2nc1C [Example 135, 6,7-dimethyl-4-(cis-4-methylcyclohexyl)-2-((2S)-2-(1-methyl-1H-pyrazol-4-yl)-4-morpholinyl)pteridine] was tested. Which EC50 did it give?
A: The EC50 was 50 to 500 nM.

Q: And the “hTREM2 Emax” value?
A: Its value is “+ (Emax>45 and ≤100)”.

Q: What does the source list for Cc1cc([C@H]2CN(c3nc(C4CC5(C4)CC(F)(F)C5)c4nc(C)c(C)nc4n3)CCO2)ccn1 [Example 56, 4-(6,6-difluorospiro[3.3]heptan-2-yl)-6,7-dimethyl-2-((2S)-2-(2-methyl-4-pyridinyl)-4-morpholinyl)pteridine]?
A: EC50: ≤ 50 nM; hTREM2 Emax: ++ (Emax>100 and ≤150)

Q: With Cc1nc2nc([C@H]3CCO[C@@H](c4cnn(C)c4)C3)nc(C3CCC(F)(F)CC3)c2nc1C (single isomer, unassigned) [Example 176] as the compound, how does the EC50 read?
A: The EC50 was at most 50 nM.

Q: What about the “hTREM2 Emax” value of the same compound?
A: Its value is “+++ (Emax>150 and ≤250)”.

Q: How did the EC50 turn out when Cc1nc2cc([C@@H]3CCO[C@H](c4cnn(C)c4)C3)nc(-c3ccc(F)cc3F)c2nc1C [Example 257, 5-(2,4-difluorophenyl)-2,3-dimethyl-7-((2S,4R)-2-(1-methyl-1H-pyrazol-4-yl)tetrahydro-2H-pyran-4-yl)pyrido[3,4-b]pyrazine] was run?
A: Its EC50 is 500 to 3000 nM.

Q: What about the “hTREM2 Emax” value of the same compound?
A: Its value is “++ (Emax>100 and ≤150)”.

Q: Which EC50 does the source give for Cc1nc2nc([C@@H]3CCO[C@H](c4cnn(C)c4)C3)cc(-c3ccc(Cl)cc3F)c2nc1C [Example 250, 8-(4-chloro-2-fluorophenyl)-2,3-dimethyl-6-((2S,4R)-2-(1-methyl-1H-pyrazol-4-yl)tetrahydro-2H-pyran-4-yl)pyrido[2,3-b]pyrazine] here?
A: The EC50 was 500 to 3000 nM.

Q: What about the “hTREM2 Emax” value of the same compound?
A: Its value is “+++ (Emax>150 and ≤250)”.

Q: With Cc1nc2nc(N3CC[C@H](C(F)F)C3)nc(-c3ccc(Cl)cc3F)c2nc1C [Example 247, (S)-4-(4-chloro-2-fluorophenyl)-2-(3-(difluoromethyl)pyrrolidin-1-yl)-6,7-dimethylpteridine] as the compound, how does the EC50 read?
A: Its EC50 is 50 to 500 nM.

Q: And the “hTREM2 Emax” value?
A: The value was “+++ (Emax>150 and ≤250)”.

Q: With Cc1ncc([C@H]2CN(c3nc(-c4ccc(Cl)cc4F)c4cc(C)c(C)nc4n3)CCO2)cn1 (single isomer, unassigned) [Example 107] as the compound, how does the EC50 read?
A: Its EC50 is at most 50 nM.

Q: What about the “hTREM2 Emax” value of the same compound?
A: The value was “+++ (Emax>150 and ≤250)”.

Q: Which results are given for Cc1cc([C@H]2CN(c3nc(-c4ccc(Cl)cc4F)c4nc(C)c(C)nc4n3)CCO2)ccn1 [Example 23, 4-(4-chloro-2-fluorophenyl)-6,7-dimethyl-2-((2S)-2-(2-methyl-4-pyridinyl)-4-morpholinyl)pteridine]?
A: EC50: ≤ 50 nM; hTREM2 Emax: ++++ (Emax>250)

Q: How did the EC50 turn out when Cc1nc2nc(N3CCO[C@@H](c4cnn(C)c4)C3)nc(-c3cc(F)c(F)c(F)c3)c2nc1C [Example 18, 6,7-dimethyl-2-((2S)-2-(1-methyl-1H-pyrazol-4-yl)-4-morpholinyl)-4-(3,4,5-trifluorophenyl)pteridine] was run?
A: The EC50 was at most 50 nM.

Q: What about the “hTREM2 Emax” value of the same compound?
A: Its value is “+++ (Emax>150 and ≤250)”.

Q: Which EC50 does the source give for Cc1nc2nc(N3CCO[C@@H](c4cnn(C)c4)C3)nc(C3CCCC3)c2nc1C [Example 140, 4-cyclopentyl-6,7-dimethyl-2-((2S)-2-(1-methyl-1H-pyrazol-4-yl)-4-morpholinyl)pteridine] here?
A: The EC50 was 50 to 500 nM.

Q: And the “hTREM2 Emax” value?
A: Its value is “++ (Emax>100 and ≤150)”.

Q: Which EC50 does the source give for Cc1cc([C@H]2CN(c3cc4nc(C)ccc4c(-c4ccc(Cl)cc4F)n3)CCO2)ccn1 [Example 151, 5-(4-chloro-2-fluorophenyl)-2-methyl-7-((2S)-2-(2-methyl-4-pyridinyl)-4-morpholinyl)-1,6-naphthyridine] here?
A: Its EC50 is 50 to 500 nM.

Q: And the “hTREM2 Emax” value?
A: Its value is “++++ (Emax>250)”.

Q: For Cc1cc([C@H]2C[C@@H](c3nc(-c4ccc(Cl)cc4F)c4ncc(C)nc4n3)CCO2)ccn1 (single isomer, unassigned) [Example 171], which EC50 is on record?
A: Its EC50 is at most 50 nM.

Q: What about the “hTREM2 Emax” value of the same compound?
A: Its value is “+++ (Emax>150 and ≤250)”.

Q: Cc1cc2c(-c3ccc(Cl)cc3F)nc([C@H]3C[C@@H](C)O[C@@H](c4cnn(C)c4)C3)nc2nc1C (single isomer, unassigned) [Example 229] was tested. Which EC50 did it give?
A: Its EC50 is at most 50 nM.

Q: And the “hTREM2 Emax” value?
A: The value was “+++ (Emax>150 and ≤250)”.

Q: What does the source list for Cc1cc(Cl)ccc1-c1nc(N2CCO[C@@H](c3cnn(C)c3)C2)nc2nc(C)c(C)nc12 [Example 58, 4-(4-chloro-2-methylphenyl)-6,7-dimethyl-2-((2S)-2-(1-methyl-1H-pyrazol-4-yl)-4-morpholinyl)pteridine]?
A: EC50: 50 to 500 nM; hTREM2 Emax: +++ (Emax>150 and ≤250)

Q: For Cc1nc2nc(N3CCO[C@@H](c4cnn(C)c4)C3)nc(C3=CC[C@@H](C(F)(F)F)CC3)c2nc1C (single isomer, unassigned) [Example 127], which EC50 is on record?
A: Its EC50 is at most 50 nM.

Q: And the “hTREM2 Emax” value?
A: Its value is “++ (Emax>100 and ≤150)”.

Q: With Cc1nc2nc(N3CCO[C@@H](c4cnn(C)c4)C3)nc(C3=CC[C@H](C(F)(F)F)CC3)c2nc1C (single isomer, unassigned) [Example 126] as the compound, how does the EC50 read?
A: The EC50 was 50 to 500 nM.

Q: And the “hTREM2 Emax” value?
A: The value was “+ (Emax>45 and ≤100)”.

Q: Which results are given for Cc1cc2c(nc(N3CCO[C@@H](c4cnn(C5CC5)c4)C3)nc2[C@H]2C[C@H](C(F)(F)F)C2)nc1C [Example 113, 2-((2S)-2-(1-cyclopropyl-1H-pyrazol-4-yl)-4-morpholinyl)-6,7-dimethyl-4-(trans-3-(trifluoromethyl)cyclobutyl)pyrido[2,3-d]pyrimidine]?
A: EC50: ≤ 50 nM; hTREM2 Emax: ++ (Emax>100 and ≤150)
